The values that follow come from PubChem BioAssay (NCI).

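Tested at 5 concentrations; 48 h exposure; 96-well plates; endpoints linearly interpolated, else capped at highest concentration. The concentration for 50% growth inhibition is given as GI50. TGI: concentration producing complete growth inhibition.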

Some test systems named below: NCI/ADR-RES ovarian; HS 578T breast; PC-3 prostate; CCRF-CEM leukemia; U251 CNS; UACC-62 melanoma; SNB-75 CNS; SK-MEL-2 melanoma; SK-MEL-28 melanoma; MALME-3M melanoma.
Holding throughout (assay): DTP human tumour cell line panel, 48 h

As to `O=C(Nc1cccc(-n2cc(-c3ccncc3)c(-c3cc(O)cc(Cl)c3)n2)c1)c1ccc(N2CCOCC2)c(C(F)(F)F)c1`, the GI50 in the experiment on NCI/ADR-RES ovarian is 4590 nM; in the experiment with HS 578T breast it was 2940 nM; with PC-3 prostate, 1090 nM; in the experiment on CCRF-CEM leukemia, 543 nM; with U251 CNS, 1400 nM; with UACC-62 melanoma, 1720 nM. Moreover, the GI50 with SNB-75 CNS was 722 nM; with SK-MEL-2 melanoma, 2340 nM; in the experiment with SK-MEL-28 melanoma, 759 nM; in the experiment with MALME-3M melanoma it was 1380 nM. The total growth inhibition concentration (TGI) is greater than 100000 nM in the experiment on NCI/ADR-RES ovarian; greater than 100000 nM with HS 578T breast; 45600 nM in the experiment with PC-3 prostate; greater than 100000 nM with CCRF-CEM leukemia; 6300 nM in the experiment with U251 CNS; 9380 nM with UACC-62 melanoma. The concentration for total growth inhibition (TGI) in the experiment with SNB-75 CNS was greater than 100000 nM; in the experiment on SK-MEL-2 melanoma, 13200 nM; with SK-MEL-28 melanoma it was 3270 nM; with MALME-3M melanoma, 5190 nM.

`CCN=c1sc2c(n1NC(=O)c1cc3ccc1CCc1ccc(cc1)CC3)C(=O)c1ccccc1C2=O`: the GI50 with NCI/ADR-RES ovarian was 814 nM; with HS 578T breast, 784 nM; in the experiment with PC-3 prostate, 643 nM; in the experiment on CCRF-CEM leukemia, 1010 nM; in the experiment with U251 CNS it was 498 nM; with UACC-62 melanoma, 593 nM. Moreover, the concentration for 50% growth inhibition (GI50) was 231 nM in the experiment on SNB-75 CNS, 726 nM in the experiment on SK-MEL-2 melanoma, 663 nM in the experiment with SK-MEL-28 melanoma and 524 nM in the experiment on MALME-3M melanoma. In addition, the TGI is 2390 nM with NCI/ADR-RES ovarian; 2280 nM in the experiment with HS 578T breast; 3050 nM in the experiment on PC-3 prostate; 33300 nM in the experiment on CCRF-CEM leukemia; 1040 nM in the experiment with U251 CNS; 1200 nM with UACC-62 melanoma. Further, the TGI in the experiment on SNB-75 CNS was found to be 787 nM; in the experiment with SK-MEL-2 melanoma, 1560 nM; with SK-MEL-28 melanoma, 1180 nM; with MALME-3M melanoma, 978 nM.

For the compound `COc1ccc(OC)c(NCC(=O)n2nc(/C=C\c3ccc(O)c(OC)c3)cc2/C=C\c2ccc(O)c(OC)c2)c1`, the GI50 in the experiment on NCI/ADR-RES ovarian is 3500 nM; in the experiment on HS 578T breast, 2310 nM; with PC-3 prostate it was 2520 nM; in the experiment with CCRF-CEM leukemia, 474 nM; with U251 CNS it was 2360 nM; with UACC-62 melanoma it was 1560 nM. Moreover, the GI50 with SNB-75 CNS was 2200 nM; in the experiment on SK-MEL-2 melanoma it was 2300 nM; in the experiment on SK-MEL-28 melanoma, 2660 nM; in the experiment on MALME-3M melanoma, 3010 nM. Besides, the TGI is greater than 100000 nM with NCI/ADR-RES ovarian; 19200 nM with HS 578T breast; greater than 100000 nM in the experiment with PC-3 prostate; greater than 100000 nM in the experiment with CCRF-CEM leukemia; 12000 nM in the experiment with U251 CNS; 4720 nM with UACC-62 melanoma. For the same compound, the TGI with SNB-75 CNS stood at 9750 nM; in the experiment on SK-MEL-2 melanoma it was 7040 nM; in the experiment with SK-MEL-28 melanoma it was 12300 nM; in the experiment on MALME-3M melanoma it was 14600 nM.

On to `CN[C@@H](C)C(=O)N[C@H]1CN(S(=O)(=O)c2cccc(S(=O)(=O)N3CC[C@H]4CC[C@@H](C(=O)NC(c5ccccc5)c5ccccc5)N4C(=O)[C@@H](NC(=O)[C@H](C)NC)C3)c2)CC[C@H]2CC[C@@H](C(=O)NC(c3ccccc3)c3ccccc3)N2C1=O`, for which the GI50 is greater than 100000 nM in the experiment on NCI/ADR-RES ovarian; 18900 nM with HS 578T breast; 21500 nM in the experiment with PC-3 prostate; 1850 nM in the experiment with CCRF-CEM leukemia; 24400 nM in the experiment on U251 CNS; 18000 nM with UACC-62 melanoma. Moreover, the values for the GI50 in the experiment on SK-MEL-2 melanoma, with SK-MEL-28 melanoma and in the experiment on MALME-3M melanoma were less than 22.3 nM, 15600 nM and less than 10.4 nM, respectively. The total growth inhibition concentration (TGI) is greater than 100000 nM in the experiment with NCI/ADR-RES ovarian; 47800 nM in the experiment with HS 578T breast; greater than 63300 nM in the experiment on PC-3 prostate; greater than 100000 nM in the experiment with CCRF-CEM leukemia; 63800 nM in the experiment with U251 CNS; 38900 nM with UACC-62 melanoma. The concentration for total growth inhibition (TGI) in the experiment with SNB-75 CNS is 721 nM; in the experiment with SK-MEL-2 melanoma, 10900 nM; in the experiment with SK-MEL-28 melanoma it was 29700 nM; with MALME-3M melanoma, 45.2 nM.

On to `O=C1Oc2ccccc2C(=O)/C1=C1/C=C(c2ccccc2)SS1`, for which the total growth inhibition concentration (TGI) was greater than 100000 nM in the experiment with NCI/ADR-RES ovarian; greater than 100000 nM in the experiment on HS 578T breast; greater than 100000 nM with PC-3 prostate; 49600 nM in the experiment on CCRF-CEM leukemia; greater than 100000 nM in the experiment on U251 CNS; greater than 100000 nM with UACC-62 melanoma. Also, the TGI in the experiment on SNB-75 CNS, in the experiment with SK-MEL-2 melanoma, in the experiment on SK-MEL-28 melanoma and in the experiment on MALME-3M melanoma was greater than 100000 nM each time.

Consider `CCN(CC)CCCNc1ccc(C)c2sc3ccccc3c(=O)c12`, for which the GI50 is 1400 nM in the experiment on NCI/ADR-RES ovarian; 1490 nM with HS 578T breast; 758 nM with PC-3 prostate; 960 nM with CCRF-CEM leukemia; 602 nM with U251 CNS; 205 nM with UACC-62 melanoma. Moreover, the GI50 with SNB-75 CNS is 5200 nM; with SK-MEL-2 melanoma, 1660 nM; in the experiment with SK-MEL-28 melanoma it was 201 nM; with MALME-3M melanoma, 193 nM. In addition, the concentration for total growth inhibition (TGI) in the experiment with NCI/ADR-RES ovarian is 4480 nM; in the experiment with HS 578T breast, 5700 nM; with PC-3 prostate, 2570 nM; with CCRF-CEM leukemia, 2820 nM; in the experiment with U251 CNS, 1960 nM; with UACC-62 melanoma, 420 nM. The TGI was found to be 26100 nM in the experiment on SNB-75 CNS, 3450 nM in the experiment with SK-MEL-2 melanoma, 435 nM with SK-MEL-28 melanoma and 402 nM in the experiment on MALME-3M melanoma.

With `OC1(c2ccc(Cl)c(C(F)(F)F)c2)CCN(CCCC(c2ccc(F)cc2)c2ccc(F)cc2)CC1`, the GI50 in the experiment on NCI/ADR-RES ovarian is 863 nM; in the experiment on HS 578T breast, 857 nM; with PC-3 prostate, 857 nM; with CCRF-CEM leukemia, 1040 nM; with U251 CNS it was 784 nM; in the experiment on UACC-62 melanoma, 810 nM. The GI50 was 713 nM in the experiment on SNB-75 CNS, 955 nM with SK-MEL-2 melanoma, 889 nM in the experiment with SK-MEL-28 melanoma and 934 nM in the experiment with MALME-3M melanoma. The concentration for total growth inhibition (TGI) is 1770 nM in the experiment on NCI/ADR-RES ovarian; 1930 nM with HS 578T breast; 2100 nM with PC-3 prostate; 2630 nM with CCRF-CEM leukemia; 1450 nM in the experiment on U251 CNS; 1500 nM in the experiment with UACC-62 melanoma. Moreover, the concentration for total growth inhibition (TGI) in the experiment with SNB-75 CNS turned out to be 1430 nM; with SK-MEL-2 melanoma it was 1760 nM; in the experiment with SK-MEL-28 melanoma, 1580 nM; in the experiment with MALME-3M melanoma, 1740 nM.
